US12662479B2 (Foghorn Therapeutics Inc., priority 2020, dated 2026)

What was measured:
[1] = target: T1, HiBit-BRM fusion protein (Homo sapiens, UniProt P51531); assay: HiBiT-BRM cell-based degradation assay (Nano-Glo HiBiT Lytic Detection, 24 h); conditions: HeLa cells expressing HiBiT-BRM; for DC50: read-out: BRM HiBit Degradation IC50; for BRM HiBit Degradation Maximum measured: top dose 30 μM
T1 construct: expressed in transfected cells
Outline: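 Luminescence from reconstituted NanoBiT luciferase in lysed HeLa HiBiT-BRM cells served as the measure of remaining BRM after 24 h treatment. Compounds were tested from 30 μM final downward in 3-fold steps. DMSO and 2 μM of a standard BRM/BRG1 degrader defined the scale limits.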

[2] = target: T2, HiBit-BRG1 fusion protein (Homo sapiens, UniProt P51532); assay: HiBiT-BRG1 cell-based degradation assay (Nano-Glo HiBiT Lytic Detection, 24 h); conditions: HeLa cells expressing HiBit-BRG1 and LgBit; for DC50: read-out: BRG1 HiBit Degradation IC50; for Dmax: HeLa, top dose 30 μM, read-out: BRG1 HiBit Degradation Maximum measured
T2 construct: expressed in transfected cells
T2 sequence (P51532 whole entry, the tested form may be a part): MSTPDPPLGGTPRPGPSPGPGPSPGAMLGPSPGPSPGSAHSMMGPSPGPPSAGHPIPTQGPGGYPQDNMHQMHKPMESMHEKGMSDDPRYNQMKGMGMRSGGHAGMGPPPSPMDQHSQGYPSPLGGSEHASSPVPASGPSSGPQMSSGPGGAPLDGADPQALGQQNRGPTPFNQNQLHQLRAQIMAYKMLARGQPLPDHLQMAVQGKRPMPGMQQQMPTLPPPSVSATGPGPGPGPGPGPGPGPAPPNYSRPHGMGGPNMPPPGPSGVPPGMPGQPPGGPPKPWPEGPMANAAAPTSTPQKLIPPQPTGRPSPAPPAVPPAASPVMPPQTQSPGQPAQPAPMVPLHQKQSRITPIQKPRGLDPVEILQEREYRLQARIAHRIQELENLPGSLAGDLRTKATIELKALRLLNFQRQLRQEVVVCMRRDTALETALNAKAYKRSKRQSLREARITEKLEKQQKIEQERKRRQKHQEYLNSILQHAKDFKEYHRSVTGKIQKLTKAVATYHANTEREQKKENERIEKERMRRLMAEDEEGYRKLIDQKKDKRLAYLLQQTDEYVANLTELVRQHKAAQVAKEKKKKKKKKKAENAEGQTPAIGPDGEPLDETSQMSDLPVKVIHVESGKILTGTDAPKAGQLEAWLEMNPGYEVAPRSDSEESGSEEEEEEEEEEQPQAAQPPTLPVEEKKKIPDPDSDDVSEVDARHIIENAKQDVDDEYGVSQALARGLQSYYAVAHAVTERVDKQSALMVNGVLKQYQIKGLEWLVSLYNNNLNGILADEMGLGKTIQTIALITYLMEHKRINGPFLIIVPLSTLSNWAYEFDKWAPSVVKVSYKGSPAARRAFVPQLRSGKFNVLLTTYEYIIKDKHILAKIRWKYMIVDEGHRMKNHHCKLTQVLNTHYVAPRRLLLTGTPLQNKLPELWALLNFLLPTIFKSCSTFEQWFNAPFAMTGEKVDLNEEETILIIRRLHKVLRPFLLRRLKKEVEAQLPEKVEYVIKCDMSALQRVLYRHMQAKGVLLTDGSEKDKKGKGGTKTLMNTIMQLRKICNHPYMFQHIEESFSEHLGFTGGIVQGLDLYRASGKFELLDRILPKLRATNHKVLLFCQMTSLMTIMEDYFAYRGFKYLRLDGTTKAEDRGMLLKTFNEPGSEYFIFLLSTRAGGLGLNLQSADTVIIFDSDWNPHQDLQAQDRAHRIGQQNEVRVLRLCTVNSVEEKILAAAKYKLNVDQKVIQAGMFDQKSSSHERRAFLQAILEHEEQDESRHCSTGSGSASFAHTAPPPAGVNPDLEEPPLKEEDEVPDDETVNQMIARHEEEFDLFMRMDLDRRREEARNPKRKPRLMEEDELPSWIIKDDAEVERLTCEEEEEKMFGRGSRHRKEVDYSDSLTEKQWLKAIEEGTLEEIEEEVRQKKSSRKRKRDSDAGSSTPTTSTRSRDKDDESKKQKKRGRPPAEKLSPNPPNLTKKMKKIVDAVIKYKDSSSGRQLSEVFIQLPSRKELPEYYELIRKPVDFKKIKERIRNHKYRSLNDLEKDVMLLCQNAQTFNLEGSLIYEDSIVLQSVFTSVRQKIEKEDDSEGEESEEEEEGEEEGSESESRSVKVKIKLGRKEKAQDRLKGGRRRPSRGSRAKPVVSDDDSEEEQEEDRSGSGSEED
Outline: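 Stable HeLa line expressing HiBiT-BRG1 and LgBiT, seeded at 5000 cells/well; luminescence read after lytic Nano-Glo HiBiT reagent and 10 min shaking at RT. % degradation normalised between DMSO (high control) and 2 μM reference BRM/BRG1 degrader (low control).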

T1 sequence (P51531 whole entry, the tested form may be a part): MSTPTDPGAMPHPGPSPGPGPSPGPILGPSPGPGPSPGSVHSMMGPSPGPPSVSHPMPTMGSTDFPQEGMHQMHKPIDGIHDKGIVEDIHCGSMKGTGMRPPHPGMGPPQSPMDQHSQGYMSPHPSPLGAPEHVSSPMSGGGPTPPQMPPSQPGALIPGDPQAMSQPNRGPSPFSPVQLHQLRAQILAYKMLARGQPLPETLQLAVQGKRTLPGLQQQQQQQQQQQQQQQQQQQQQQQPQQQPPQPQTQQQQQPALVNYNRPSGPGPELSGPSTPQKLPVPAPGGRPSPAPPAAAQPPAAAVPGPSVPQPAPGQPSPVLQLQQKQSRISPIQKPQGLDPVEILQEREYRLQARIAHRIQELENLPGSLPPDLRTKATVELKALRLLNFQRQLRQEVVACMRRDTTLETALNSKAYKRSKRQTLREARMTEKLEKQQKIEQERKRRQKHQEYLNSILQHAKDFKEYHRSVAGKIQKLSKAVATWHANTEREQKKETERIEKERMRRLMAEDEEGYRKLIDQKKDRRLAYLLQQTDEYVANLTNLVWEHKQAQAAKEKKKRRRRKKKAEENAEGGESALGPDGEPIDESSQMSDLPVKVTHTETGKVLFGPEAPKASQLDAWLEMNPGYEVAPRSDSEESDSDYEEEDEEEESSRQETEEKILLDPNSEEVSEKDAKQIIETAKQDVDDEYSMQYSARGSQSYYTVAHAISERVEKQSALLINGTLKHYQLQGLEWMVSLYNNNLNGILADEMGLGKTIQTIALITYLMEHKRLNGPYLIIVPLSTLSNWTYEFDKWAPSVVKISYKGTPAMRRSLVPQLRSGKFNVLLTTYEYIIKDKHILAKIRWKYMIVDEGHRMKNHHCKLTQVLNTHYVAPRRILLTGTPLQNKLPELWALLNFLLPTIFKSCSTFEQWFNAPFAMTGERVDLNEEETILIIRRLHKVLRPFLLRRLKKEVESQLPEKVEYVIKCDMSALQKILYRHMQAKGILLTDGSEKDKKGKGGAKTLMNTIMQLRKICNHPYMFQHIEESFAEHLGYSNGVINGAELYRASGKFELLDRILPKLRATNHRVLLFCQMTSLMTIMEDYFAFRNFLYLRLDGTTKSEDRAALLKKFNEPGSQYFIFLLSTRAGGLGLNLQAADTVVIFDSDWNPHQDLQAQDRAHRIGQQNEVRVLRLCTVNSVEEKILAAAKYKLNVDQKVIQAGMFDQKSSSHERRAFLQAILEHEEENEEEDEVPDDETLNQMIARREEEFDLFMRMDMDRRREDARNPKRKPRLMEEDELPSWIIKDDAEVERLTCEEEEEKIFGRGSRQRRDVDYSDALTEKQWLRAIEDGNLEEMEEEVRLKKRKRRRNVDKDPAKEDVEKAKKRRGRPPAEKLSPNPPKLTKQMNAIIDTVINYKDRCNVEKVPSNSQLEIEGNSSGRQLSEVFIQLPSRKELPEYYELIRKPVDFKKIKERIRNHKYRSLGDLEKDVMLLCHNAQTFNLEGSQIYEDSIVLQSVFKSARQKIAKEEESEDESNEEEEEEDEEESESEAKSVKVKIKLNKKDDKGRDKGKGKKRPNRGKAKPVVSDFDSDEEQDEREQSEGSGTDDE

DC50 [1]	BRM HiBit Degradation Maximum measured [1]	DC50 [2]	Dmax [2]	SMILES
< 100 nM	A (‘A’ = Maximum degradation >75%)	< 100 nM	> 75%	CS(=O)(=O)n1ccc(C(=O)NCC(=O)Nc2nc(-c3cccc(-c4ccnc(C5(C(=O)NCCCCCCNc6ccc7c(c6)C(=O)N(C6CCC(=O)NC6=O)C7=O)CC5)c4)c3)cs2)c1 (stereo not shown) [Compound 104, N-[2-[[4-[3-[2-[1-[6-[[2-(2,6-dioxo-3-piperidyl)-1,3-dioxo-isoindolin-5-yl]amino]hexylcarbamoyl]cyclopropyl]-4-pyridyl]phenyl]thiazol-2-yl]amino]-2-oxo-ethyl]-1-methylsulfonyl-pyrrole-3-carboxamide]
< 100 nM	A (‘A’ = Maximum degradation >75%)	< 100 nM	> 75%	CS(=O)(=O)n1ccc(C(=O)NCC(=O)Nc2nc(-c3cccc(-c4ccnc(C5(C(=O)NCCCCNc6ccc7c(c6)C(=O)N(C6CCC(=O)NC6=O)C7=O)CC5)c4)c3)cs2)c1 (stereo not shown) [Compound 105, N-[2-[[4-[3-[2-[1-[4-[[2-(2,6-dioxo-3-piperidyl)-1,3-dioxo-isoindolin-5-yl]amino]butylcarbamoyl]cyclopropyl]-4-pyridyl]phenyl]thiazol-2-yl]amino]-2-oxo-ethyl]-1-methylsulfonyl-pyrrole-3-carboxamide]
> 10000 nM	C (‘C’ = Maximum degradation <50%)	> 10000 nM	< 50%	CN(CCCCNC(=O)C1(c2cc(-c3cccc(-c4csc(NC(=O)CNC(=O)c5ccn(S(C)(=O)=O)c5)n4)c3)ccn2)CC1)CCCNc1cccc2c1C(=O)N(C1CCC(=O)NC1=O)C2=O (stereo not shown) [Compound 106, N-(2-((4-(3-(2-(1-((4-((3-((2-(2,6-dioxopiperidin-3-yl)-1,3-dioxoisoindolin-4-yl)amino)propyl)(methyl)amino)butyl)-carbamoyl)cyclopropyl)pyridin-4-yl)phenyl)thiazol-2-yl)amino)-2-oxoethyl)-1-(methylsulfonyl)-1H-pyrrole-3-carboxamide]
> 10000 nM	C (‘C’ = Maximum degradation <50%)	> 10000 nM	< 50%	CS(=O)(=O)n1ccc(C(=O)NCC(=O)Nc2nc(-c3cccc(-c4ccnc(C5(C(=O)N6CC(COc7ccc8c(c7)C(=O)N(C7CCC(=O)NC7=O)C8=O)C6)CC5)c4)c3)cs2)c1 (stereo not shown) [Compound 107, N-(2-((4-(3-(2-(1-(3-(((2-(2,6-dioxopiperidin-3-yl)-1,3-dioxoisoindolin-5-yl)oxy)methyl)azetidine-1-carbonyl)cyclopropyl)pyridin-4-yl)phenyl)thiazol-2-yl)amino)-2-oxoethyl)-1-(methylsulfonyl)-1H-pyrrole-3-carboxamide]
100 to 1000 nM	A (‘A’ = Maximum degradation >75%)	100 to 1000 nM	> 75%	Cc1ncsc1-c1ccc(CNC(=O)[C@@H]2C[C@@H](O)CN2C(=O)[C@@H](NC(=O)COCCOCCNC(=O)C2(c3cc(-c4cccc(-c5csc(NC(=O)CNC(=O)c6ccn(S(C)(=O)=O)c6)n5)c4)ccn3)CC2)C(C)(C)C)cc1 [Compound 108, N-[2-[[4-[3-[2-[1-[2-[2-[2-[[(1S)-1-[(2S,4R)-4-hydroxy-2-[[4-(4-methylthiazol-5-yl)phenyl]methylcarbamoyl]pyrrolidine-1-carbonyl]-2,2-dimethyl-propyl]amino]-2-oxo-ethoxy]ethoxy]ethylcarbamoyl]cyclopropyl]-4-pyridyl]phenyl]thiazol-2-yl]amino]-2-oxo-ethyl]-1-methylsulfonyl-pyrrole-3-carboxamide]
> 10000 nM	C (‘C’ = Maximum degradation <50%)	> 10000 nM	< 50%	CS(=O)(=O)n1ccc(C(=O)NCC(=O)Nc2nc(-c3cccc(-c4ccnc(C5(C(=O)N6CC(COc7cccc8c7C(=O)N(C7CCC(=O)NC7=O)C8=O)C6)CC5)c4)c3)cs2)c1 (stereo not shown) [Compound 109, N-[4-[3-(2-[1-[3-([[2-(2,6-dioxopiperidin-3-yl)-1,3-dioxoisoindol-4-yl]oxy]methyl)azetidine-1-carbonyl]cyclopropyl]pyridin-4-yl)phenyl]-1,3-thiazol-2-yl]-2-[(1-methanesulfonylpyrrol-3-yl)formamido]acetamide]
> 10000 nM	C (‘C’ = Maximum degradation <50%)	> 10000 nM	< 50%	CN(CCNC(=O)COc1ccc2c(c1)C(=O)N(C1CCC(=O)NC1=O)C2=O)CCNC(=O)C1(c2cc(-c3cccc(-c4csc(NC(=O)CNC(=O)c5ccn(S(C)(=O)=O)c5)n4)c3)ccn2)CC1 (stereo not shown) [Compound 111, N-[2-[[4-[3-[2-[1-[2-[2-[[2-[2-(2,6-dioxo-3-piperidyl)-1,3-dioxo-isoindolin-5-yl]oxyacetyl]amino]ethyl-methylamino]ethylcarbamoyl]cyclopropyl]-4-pyridyl]phenyl]thiazol-2-yl]amino]-2-oxo-ethyl]-1-methylsulfonyl-pyrrole-3-carboxamide]
> 10000 nM	C (‘C’ = Maximum degradation <50%)	> 10000 nM	< 50%	CN(CCNC(=O)C1(c2cc(-c3cccc(-c4csc(NC(=O)CNC(=O)c5ccn(S(C)(=O)=O)c5)n4)c3)ccn2)CC1)CCOCCOc1cccc2c1C(=O)N(C1CCC(=O)NC1=O)C2=O (stereo not shown) [Compound 112, N-(2-((4-(3-(2-(1-((2-((2-(2-((2-(2,6-dioxopiperidin-3-yl)-1,3-dioxoisoindolin-4-yl)oxy)ethoxy)ethyl)(methyl)amino)-ethyl)carbamoyl)cyclopropyl)-pyridin-4-yl)phenyl)thiazol-2-yl)amino)-2-oxoethyl)-1-(methylsulfonyl)-1H-pyrrole-3-carboxamide]
< 100 nM	A (‘A’ = Maximum degradation >75%)	< 100 nM	> 75%	CS(=O)(=O)n1ccc(C(=O)NCC(=O)Nc2nc(-c3cccc(-c4ccnc(C5(C(=O)NC6CCN(CCOc7ccc8c(c7)C(=O)N(C7CCC(=O)NC7=O)C8=O)CC6)CC5)c4)c3)cs2)c1 (stereo not shown) [Compound 113]
> 10000 nM	C (‘C’ = Maximum degradation <50%)	> 10000 nM	< 50%	Cc1c(C(=O)NCC(=O)Nc2nc(-c3cccc(-c4ccnc(N(C)CC(=O)N5CCC(C6CCN(C(=O)COc7cccc8c7C(=O)N(C7CCC(=O)NC7=O)C8=O)CC6)CC5)c4)c3)cs2)cn(S(=O)(=O)C(C)C)c1C (stereo not shown) [Compound 116, N-(2-((4-(3-(2-((2-(1′-(2-((2-(2,6-dioxopiperidin-3-yl)-1,3-dioxoisoindolin-4-yl)oxy)acetyl)-[4,4′-bipiperidin]-1-yl)-2-oxoethyl)(methyl)amino)pyridin-4-yl)phenyl)thiazol-2-yl)amino)-2-oxoethyl)-1-(isopropylsulfonyl)-4,5-dimethyl-1H-pyrrole-3-carboxamide]
100 to 1000 nM	A (‘A’ = Maximum degradation >75%)	100 to 1000 nM	> 75%	Cc1ncsc1-c1ccc(CNC(=O)[C@@H]2C[C@@H](O)CN2C(=O)[C@@H](NC(=O)CCCCCCCCCCC(=O)NCc2cccc(-c3cccc(-c4csc(NC(=O)CNC(=O)c5ccn(S(C)(=O)=O)c5)n4)c3)c2)C(C)(C)C)cc1 [Compound 119, N1-((S)-1-((2S,4R)-4-hydroxy-2-((4-(4-methylthiazol-5-yl)benzyl)carbamoyl)pyrrolidin-1-yl)-3,3-dimethyl-1-oxobutan-2-yl)-N12-((3′-(2-(2-(1-(methylsulfonyl)-1H-pyrrole-3-carboxamido)acetamido)thiazol-4-yl)-[1,1′-biphenyl]-3-yl)methyl)dodecanediamide]

SMILES	DC50 [1]	BRM HiBit Degradation Maximum measured [1]	DC50 [2]	Dmax [2]
Cc1ncsc1-c1ccc(CNC(=O)[C@@H]2C[C@@H](O)CN2C(=O)[C@@H](NC(=O)COCCOCCOCCNC(=O)C2(c3cc(-c4cccc(-c5csc(NC(=O)CNC(=O)c6ccn(S(C)(=O)=O)c6)n5)c4)ccn3)CC2)C(C)(C)C)cc1 [Compound 110, N-[2-[[4-[3-[2-[1-[2-[2-[2-[2-[[(1S)-1-[(2S,4R)-4-hydroxy-2-[[4-(4-methylthiazol-5-yl)phenyl]methylcarbamoyl]pyrrolidine-1-carbonyl]-2,2-dimethyl-propyl]amino]-2-oxo-ethoxy]ethoxy]ethoxy]ethylcarbamoyl]-cyclopropyl]-4-pyridyl]phenyl]thiazol-2-yl]amino]-2-oxo-ethyl]-1-methylsulfonyl-pyrrole-3-carboxamide]	100 to 1000 nM	B (‘B’ = Maximum degradation ≥50% and ≤75%)	100 to 1000 nM	> 75%
Cc1ncsc1-c1ccc(CNC(=O)[C@@H]2C[C@@H](O)CN2C(=O)[C@@H](NC(=O)CCCCCCCCCCCCC(=O)NCc2cccc(-c3cccc(-c4csc(NC(=O)CNC(=O)c5ccn(S(C)(=O)=O)c5)n4)c3)c2)C(C)(C)C)cc1 [Compound 118, N1-((S)-1-((2S,4R)-4-hydroxy-2-((4-(4-methylthiazol-5-yl)benzyl)carbamoyl)pyrrolidin-1-yl)-3,3-dimethyl-1-oxobutan-2-yl)-N14-((3′-(2-(2-(1-(methylsulfonyl)-1H-pyrrole-3-carboxamido)acetamido)thiazol-4-yl)-[1,1′-biphenyl]-3-yl)methyl)tetradecanediamide]	100 to 1000 nM	B (‘B’ = Maximum degradation ≥50% and ≤75%)	100 to 1000 nM	50 to 75%
